In US6960343B2, “Toll/interleukin-1 receptor adapter protein (TIRAP)” (Yale University School of Medicine, priority 2001, dated 2005):

Key:
JNK = JNK phosphorylation in RAW cells, immunoblot; assay type: cell-based; details: 40 μM peptide
Experimental: (§1) FIG. 5, comprising FIGS. 5A through 5D, is a series of blots depicting inhibition of LPS- but not CpG-induced NF-κB activation, PKR phosphorylation, and JNK phosphorylation by TIRAP. (A) TIRAP peptide, but not a reverse sequence peptide, inhibited LPS-induced NF-κB activation. RAW κB cells pretreated for 1 h with either the TIRAP or control peptide were stimulated with LPS (10 ng/ml) for 5 h. Samples were stimulated in duplicate. (B) Pretreatment of RAW cells with TIRAP peptide blocks LPS-induced IκB-α degradation. RAW cells pretreated with the TIRAP peptide as indicated were either left unstimulated or stimulated with LPS (10 ng/ml) for the indicated time periods. […] Lysates (30 μg/sample) were analyzed by SDS-PAGE followed by immunoblotting with antibodies that specifically recognize phosphorylated PKR or phosphorylated JNK.
(§2) To determine whether a TIRAP mutant peptide inhibits PKR and JNK phosphorylation induced by LPS or CpG, RAW cells either untreated or pretreated with 40 μM of the TIRAP peptide were either left unstimulated or stimulated with either LPS (10 ng/ml) or CpG (10 μM) for the indicated time periods before harvest and lysis. Lysates (30 μg/sample) were analyzed by SDS-PAGE followed by immunoblotting with antibodies that specifically recognize phosphorylated PKR and JNK.

IL-6 = IL-6 production by dendritic cells; assay type: cell-based, mice; details: DCs
Experimental: (§3) (A) Wild-type and MyD88^−/− dendritic cells (DCs) were induced with LPS or CpG and analyzed for expression of the costimulatory molecules B7.1 and […] flow cytometry. (B) Production of the cytokines, IL-12 and IL-6, was measured in cells that were untreated (none) or treated with LPS or CpG in the presence or absence of TIRAP peptide. (C) T cell proliferation was measured in wild-type DCs that were untreated (none), treated with LPS alone (LPS), or treated with LPS in the presence of increasing amounts of TIRAP peptide (LPS+TIRAP peptide). T cell proliferation was measured by incorporation of ^3H-thymidine into cells, expressed as cpm×10^3.
(§4) To determine the effects of the TIRAP peptide on cytokine production, DCs were treated with or without TIRAP peptide prior to stimulation with LPS or CpG (as described above), and the production of IL-12 and IL-6 was measured. Addition of TIRAP peptide inhibited production of IL-12 and IL-6 cytokines in response to stimulation with LPS, but not CpG (FIG. 6B).

IL-12 = IL-12 production by dendritic cells; assay type: cell-based, mice; details: DCs
Experimental: as §3, §4

PKR = PKR phosphorylation in RAW cells, immunoblot; assay type: cell-based; details: 40 μM peptide
Experimental: as §1, §2

[1] = tested on: 1H3.1 TCR transgenic T cells; experiment: CD4 T cell proliferation stimulated by DCs, 3H-thymidine incorporation; assay type: cell-based; details: DCs from wild-type or MyD88-deficient mice, LPS, Eα peptide, 48 h culture
Experimental: as §3
Lastly, the effect of TIRAP peptide on T cell proliferation was evaluated. Stimulation of CD4 T cell proliferation by DCs treated with or without TIRAP peptide prior to stimulation with LPS was performed in the presence of varying concentrations of Eα peptide. DCs were fixed prior to incubation with 1H3.1 TCR transgenic T cells (specific for Eα peptide bound to I-A). Proliferation was measured by ^3H-thymidine incorporation for the last 24 h of a 48 h culture.

dendritic cells (DCs) = experiment: Dendritic cell maturation, flow cytometry of costimulatory molecules B7.1 and B7.2; assay type: cell-based, mice; details: peptide 10 μM
Experimental: as §3
In view of the important role for TIRAP in mediating LPS-responsiveness in macrophages, the role of TIRAP in LPS-induced DC maturation was investigated. TIRAP is likely to be critical in these events because MyD88-deficient DCs retain the ability to upregulate costimulatory molecules in response to LPS stimulation (Kaisho 2001). To determine the effect of TIRAP on the expression of the costimulatory molecules B7.1 and B7.2, flow cytometry was performed on wild type and MyD88-/-DC. DCs were either unstimulated (shaded), stimulated with LPS (10 ng/ml) or CpG (10 μM) (black line), or pretreated with TIRAP peptide (10 μM) prior to stimulation with LPS or CpG (dashed line). […]

NF-κB = experiment: NF-κB-dependent luciferase reporter assay in RAW κB macrophage cell line; assay type: cell-based; details: RAW κB cells
Experimental: (§5) FIG. 5, comprising FIGS. 5A through 5D, is a series of blots depicting inhibition of LPS- but not CpG-induced NF-κB activation, PKR phosphorylation, and JNK phosphorylation by TIRAP. (A) TIRAP peptide, but not a reverse sequence peptide, inhibited LPS-induced NF-κB activation. RAW κB cells pretreated for 1 h with either the TIRAP or control peptide were stimulated with LPS (10 ng/ml) for 5 h. Samples were stimulated in duplicate. (B) Pretreatment of RAW cells with TIRAP peptide blocks LPS-induced IκB-α degradation. RAW cells pretreated with the TIRAP peptide as indicated were either left unstimulated or stimulated with LPS (10 ng/ml) for the indicated time periods. Lysates (30 μg/sample) were resolved by SDS-PAGE followed by immunoblotting with an anti-IκB-α antibody to assess IκB-α degradation. (C) TIRAP peptide inhibited LPS- but not CpG-induced NF-κB activity. RAW κB cells pretreated with the TIRAP peptide as indicated were stimulated with either LPS or CpG and harvested for reporter assay. (D) TIRAP peptide inhibited PKR and JNK phosphorylation induced by LPS but not CpG. RAW cells either untreated or pretreated with 40 μM of the TIRAP peptide were stimulated with either LPS or CpG as indicated. Lysates (30 μg/sample) were analyzed by SDS-PAGE followed by immunoblotting with antibodies that specifically recognize phosphorylated PKR or phosphorylated JNK. […]

IκB-α = IκB-α degradation in RAW cells, immunoblot; assay type: cell-based
Experimental: as §5

TIRAP peptide: synthetic peptide corresponding to the P125 region of mTIRAP linked to the C-terminus of a peptide derived from antennapedia (RQIKIWFQNRRMKWKKLQLRDAAPGGAIVS; TIRAP/Antennapedia fusion protein)
inhibition of JNK phosphorylation induced by CpG (JNK; CpG): not CpG
inhibition of JNK phosphorylation induced by LPS (JNK; LPS): inhibited
production of IL-6 in response to CpG (IL-6; peptide before CpG stimulation): not CpG
production of IL-6 in response to LPS (IL-6; peptide before LPS stimulation): inhibited
production of IL-12 in response to CpG (IL-12; peptide before CpG stimulation): not CpG
production of IL-12 in response to LPS (IL-12; peptide before LPS stimulation): inhibited
inhibition of PKR phosphorylation induced by CpG (PKR; CpG 10 μM): not CpG
inhibition of PKR phosphorylation induced by LPS (PKR; LPS 10 ng/ml): inhibited
T cell proliferation induced by peptide-treated DCs [1]: unable to induce T cell proliferation
CpG-induced DC maturation (dendritic cells (DCs); DCs, CpG 10 μM): no effect
LPS-induced upregulation of B7.1 and B7.2 molecules (dendritic cells (DCs); wild-type and MyD88-deficient DCs, LPS 10 ng/ml): abolished
inhibition of LPS-induced NF-κB activation (NF-κB; 1 hour pretreatment, LPS 10 ng/ml 5 hours, TIRAP peptide 50 μM): potently inhibited
inhibition of CpG-induced NF-κB activation (NF-κB; CpG 10 μM 5 hours): did not inhibit
LPS-induced IκB-α degradation (IκB-α; 1 hour pretreatment with 40 μM peptide, LPS 10 ng/ml): did not induce IκB-α degradation
inhibition of CpG-induced IκB-α degradation (IκB-α; CpG): did not inhibit
